According to patent US11673891B2, “Imidazopyrimidine compounds and uses thereof” (Dana-Farber Cancer Institute, Inc., priority 2017, dated 2023):
“Also recorded” adds a separate entry of the source.

Columns and labels:
human adult PBMCs = experiment: TNF production by ELISA after stimulation of human adult PBMCs; format: cell-based; conditions: 33 μM, 18 hours; for TNF (Median) / Activity class / TNF % (Median): adult PBMCs; for TNF (Median) / TNF % (Median): N=3-5; for TNF (Median): unit not given (FIG. 6B/7B legends: TNF concentration in ng/ml); for Activity class: class according to TNF % as compared to R848; for TNF % (Median): median percentage TNF production as compared to R848
Experimental: Table 1. Activity of Exemplary Imidazopyrimidine Compounds on Stimulating TNF Production in PBMCs as Compared to Compound R848 Table 1 provides the activity of exemplary compounds on stimulating TNF production in PBMCs as compared to the benchmark compound R848. Specifically, TNF production was measured by ELISA after stimulation of adult PBMCs with compound 037 analog family or the compound R848 at 33 μM for 18 hours. Analogs are ranked top to bottom by median percentage TNF production (TNF %) as compared to R848 (N=3-5). The compounds have been classified in the following categories according to TNF %: high activity—class A: TNF %>15%; medium activity—class B: 1%<TNF %≤15%; low activity—class C: TNF %≤1%.
ELISAs and Multiplex-Analyte Assays. Supernatants derived from human PBMCs and DC stimulations were assayed by ELISA for TNF (ThermoFisher Scientific; Waltham, Mass., USA). Cytokine and chemokine expression profiles (e.g., IFNγ, IL-9, IL-10, IL-12 (p70), IL-13, IL-1β, IL-23, IL-27, IL-28A, IL-33, IL-6, MIP-3α/CCL20, and TNF) in cell culture supernatants were measured using a customized Milliplex® Human Th17 Magnetic Bead Panel according to the manufacturer's instructions (Millipore, Chicago, Ill., USA). Assays were read and analyzed on the Luminex® 100/200™ System and xPOTENT® software (Luminex, Austin, Tex.). A minimum threshold was set at the minimum detectable concentration for each individual assay, defined as three standard deviations above the mean background.
PBMCs were isolated from blood using a Ficoll density gradient. PBMCs either used fresh or were stored at 5×10^7 cells per vial in 1 mL RPMI containing 20% autologous plasma and 10% DMSO at −80° C. until use. Stimulation plates were prepared by transferring 0.66 μl of DMSO-dissolved compounds (10 mM) to each well of a round bottom 96-well plate. PBMCs isolated from human adult donors were resuspended at a concentration of 10^5 cells/200 μl of RPMI supplemented with 10% of platelet-poor plasma. 200 μl of the cell suspension were transferred to each well resulting in a final compound concentration of […]. After about 18 hours of incubation (37° C., 5% CO2), plates were spun down (500×g, room temperature, 5 minutes) and supernatants were harvested for further analysis.

[1] = test system: Splenocytes isolated from 6-8 weeks old C57BL/6 mice; experiment: Mouse splenocyte in vitro stimulation, murine IL-6 by ELISA; format: cell-based; conditions: C57BL/6 splenocytes, 33 μM, 18 hours
Experimental: Splenocytes isolated from 6-8 weeks old C57BL/6 mice and human adult PBMCs were stimulated for 18 hours with compound 037 and its analogs at 33 μM. Production of murine IL-6 and human TNF was assessed in cell-free supernatants by ELISA. Results are presented as scatter plot in which each dot represents median production of human TNF (N=3-5) or murine IL-6 (N=6) for each compound.
Spleens were harvested from 6-8 weeks old C57BL/6 mice. For splenocyte isolation, spleens were mashed through a […] strainer, washed with PBS, and erythrocytes were lysed with 2 min of incubation in ammonium chloride-based lysis buffer (BD Biosciences). Cells were then counted and plated 2×10^6 per well (round bottom 96-well plate) in 200 μl of complete culture medium (RPMI 1640 plus 10% heat-inactivated fetal bovine serum [FBS, GE Healthcare HyClone], 50 μM 2-mercaptoethanol, 2 mM 1-glutamine, 100 U/ml penicillin/streptomycin [Gibco ThermoFisher Scientific]) with 0.66 μl of DMSO-dissolved compounds (10 mM) in order to achieve a final compound concentration of 33 μM. After 18 hours of incubation (37° C., 5% CO2), plates were spun down (500×g, room temperature, 5 minutes) and supernatants were harvested for further analysis.

SMILES | TNF (Median) (human adult PBMCs; ELISA) | Activity class (human adult PBMCs) | Production of human TNF by PBMCs (in words) (human adult PBMCs; human adult PBMCs, ELISA) | TNF % (Median) (human adult PBMCs) | Production of murine IL-6 by splenocytes (in words) [1]
Cc1cnc2nc(-c3ccc(C)c(NC(=O)c4ccccc4C(F)(F)F)c3)cn2c1 [FRF-02-144-3] | 5.397 | A (high activity—class A: TNF %>15%) | activates both human PBMCs and mouse splenocytes; also recorded: active on both human and murine cells | 99.81% | activates both human PBMCs and mouse splenocytes; also recorded: active on both human and murine cells
COc1ccc(C(=O)Nc2cc(-c3cn4cccnc4n3)ccc2C)c(C)c1 [FRF-02-182] | 0.008 | C (low activity—class C: TNF %≤1%) | – | 0.39% | –
COc1ccc(C)c(C(=O)Nc2cc(-c3cn4cccnc4n3)ccc2C)c1 [FRF-02-183] | 0.008 | C (low activity—class C: TNF %≤1%) | – | 0.77% | –
COc1ccc(C)c(C(=O)Nc2cc(-c3cn4cc(F)cnc4n3)ccc2C)c1 [FRF-02-187] | 1.191 | A (high activity—class A: TNF %>15%) | – | 31.32% | –
Cc1ccc(-c2cn3cccnc3n2)cc1NC(=O)C(CO)c1ccccc1 (centres unmarked) [FRF-02-193] | 2.997 | A (high activity—class A: TNF %>15%) | – | 91.73% | –
Cc1ccc(-c2cn3cc(F)cnc3n2)cc1NC(=O)C(CO)c1ccccc1 (centres unmarked) [FRF-02-194] | 0.008 | C (low activity—class C: TNF %≤1%) | – | 0.18% | –
Cc1ccc(-c2cn3cc(F)cnc3n2)cc1NC(=O)C(C)c1ccccc1 (centres unmarked) [FRF-03-081] | 0.3195 | B (medium activity—class B: 1%<TNF %≤15%) | – | 7.51% | –
Cc1ccc(-c2cn3cc(F)cnc3n2)cc1NC(=O)C(C)(C)c1ccccc1 [FRF-03-084-1] | 0.24 | B (medium activity—class B: 1%<TNF %≤15%) | – | 6.00% | –
